Measured values from patent publication US20240150366A1, “4-AMINOQUINAZOLINE COMPOUND” (Astellas Pharma Inc., priority 2021, published 2024).
Read-outs that look alike come from different tables or passages of the source.

How the values were obtained:
[1] = biological target: KRAS G12D/SOS/c-Raf complex (Homo sapiens (Human), UniProt P01116, G12D); assay: KRAS G12D/SOS/c-Raf complex formation inhibitory activity (TR-FRET); type: biochemical; conditions: human recombinant proteins, 1 hour at room temperature, read-out: IC50, KRAS G12D/SOS/c-Raf complex formation inhibition
Chain of KRAS G12D/SOS/c-Raf complex (P01116 other isoform, or with tags, fused parts or gaps G12D): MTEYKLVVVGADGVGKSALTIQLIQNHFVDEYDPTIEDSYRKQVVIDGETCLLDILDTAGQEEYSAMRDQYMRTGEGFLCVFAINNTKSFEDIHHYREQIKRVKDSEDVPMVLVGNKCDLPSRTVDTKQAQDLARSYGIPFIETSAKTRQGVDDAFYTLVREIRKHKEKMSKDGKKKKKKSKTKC
Experimental: Using human recombinant KRAS G12D, SOS and c-Raf proteins, the inhibitory activity of subject compounds on the complex formation of the proteins was examined by a time-resolved fluorescence resonance energy transfer (TR-FRET) method.
Biotinylated AviTag-KRAS G12D (amino acid region of 1-185, GDP) (2.5 μL; 400 nM) and subject compounds dissolved in an assay buffer (50 mM HEPES, 150 mM NaCl, 5 mM MgCl2, 0.05% Tween 20, pH 7.0) were added to a 384-well plate (from Corning) in a liquid volume of 2.5 μL at 40,000 nM to 40 nM. Son of Sevenless (SOS) (amino acid region of 564-1049, 2.5 μL; 1.3 μM) and c-Raf (amino acid region of 51-131) GST (2.5 μL; 130 nM) containing GTP (from Sigma-Aldrich; 2 μM) were added to the plate, and the plate was allowed to stand for 1 hour at room temperature. Then, a mixture liquid (10 μL) of LANCE Ulight-anti-GST (from PerkinElmer; 120 nM) and LANCE Eu-W1024 labeled Streptoavidin (from PerkinElmer; 100 ng/mL) was added, and the 620-nm and 665-nm fluorescence intensities were measured using EnVision 2104 (from PerkinElmer) under the conditions of an excitation wavelength of 337 nm. After standardizing the values with the fluorescence intensity at a reference wavelength of 620 nm, the 50% inhibitory concentrations (IC50) were calculated by Sigmoid-Emax model nonlinear regression analysis with the signaling value in treatment with the solvent taken as 0% inhibition and with the signaling value without the addition of GTP taken as 100% inhibition.

[2] = system: KRAS G12D mutant-positive pancreatic cancer line AsPC-1; assay: Non-anchorage-dependent cell growth inhibitory activity in AsPC-1 (spheroid 3D culture); type: cell-based; conditions: Homo sapiens, ASPC1, 144 h, read-out: IC50, non-anchorage-dependent cell growth inhibition
Experimental: The non-anchorage-dependent cell growth inhibitory activities of subject compounds were evaluated by spheroid 3D cell culture.
AsPC-1 cells were seeded at 36 μL/well on a low-cell-adhesive round bottom 384-well plate (Prime Surface: from Sumitomo Bakelite) to give 5×10^2 cells per well. The cell culture was performed under the same conditions as in the Test Example 2.
The next day, the subject compounds (6 points having final concentrations in the range of 10 μM to 3.0 nM) and DMSO, which was the solvent for the subject compounds, as a negative control were diluted 100-fold with a fresh medium and were each added at 4 μL per well. After culturing in the presence of 5% CO2 at 37° C. for six days, CellTiter Glo 2.0 (from Promega) was added at 20 μL per well. After stirring with a plate mixer (from FINEPCR) at normal temperature for an hour, the luminescent signals were measured with ARVO X3 (from PerkinElmer).
With the signaling value in treatment with DMSO taken as 0% inhibition and with the signaling value in the medium alone without cells taken as 100% inhibition, the 50% inhibition values (IC50) were calculated by Sigmoid-Emax model nonlinear regression analysis.

[3] = system: ERK phosphorylation (Thr202/Tyr204) in KRAS G12D mutant-positive pancreatic cancer line AsPC-1; assay: ERK phosphorylation inhibitory activity in AsPC-1 (cell ELISA); type: cell-based; conditions: Homo sapiens, ASPC1, 2 h, read-out: IC50, ERK phosphorylation inhibition
Experimental: The ERK phosphorylation inhibitory activities of subject compounds were evaluated by measuring phosphorylation of the 202th threonine (Thr202) and the 204th tyrosine (Tyr204) of ERK located downstream of the KRAS signal by cell ELISA.
AsPC-1 cells (ATCC, CRL-1682) were seeded at 36 μL/well on a 384-well plate (from Greiner bio-one) to give 2.0×10^4 cells per well. As for the cell culture conditions, RPMI-1640 medium (from Sigma-Aldrich) containing 10% fetal bovine serum (from GE Life Sciences) was used in the presence of 5% CO2 at 37° C.
The next day, the subject compounds (6 points having final concentrations in the range of 10 μM to 0.3 nM), trametinib (MEK inhibitor) of a final concentration of 1 μM as a positive control and DMSO, which was the solvent for the subject compounds, as a negative control were diluted 100-fold with a fresh medium and were each added at 4 μL per well, followed by culturing for 2 hours. After culturing, a 30% glyoxal solution (40% glyoxal [from Wako] was diluted with Phosphate Buffered Saline [PBS; from Wako) was quickly added at 30 μL per well, and the plate was allowed to stand for an hour at room temperature to thus immobilize the cells. Then, the plate was centrifuged (110× g, seven seconds, hereinafter centrifugation was performed under the same conditions unless otherwise specified) to remove the supernatant, and 0.1% Triton X-100 (from Amersham Biosciences)—containing PBS was added at 20 μL per well. After allowing the plate to stand for 10 minutes at room temperature, the supernatant was removed by centrifugation, and the same operation was further repeated. Next, 0.5% sodium dodecyl sulfate (SDS; from Invitrogen)-containing PBS was added at 20 μL per well. The plate was allowed to stand at room temperature for 30 minutes and was then centrifuged to remove the supernatant. Subsequently, a blocking solution (Intercept Blocking Buffer; from LI-COR Biosciences) was added at 20 μL per well, and the plate was allowed to stand for an hour at room temperature. The supernatant was removed by centrifugation, and an ERK (Thr202/Tyr204) phosphorylation antibody (Phospho-p44/42 MAPK (Erk 1/2) (Thr202/Tyr204) (D13.14.4E) XP Rabbit mAb; from Cell Signaling Technology) diluted 2,500-fold with the blocking solution was added at 10 μL per well as a primary antibody. The plate was allowed to stand at 4° C. overnight.
The next day, the plate was centrifuged to remove the supernatant, and 0.05% Tween-20-containing PBS (from Thermo Scientific; 20× PBS Tween-20 was diluted 20-fold with ion exchange water and used) was added at 20 μL per well. The supernatant was removed by centrifugation to thus wash each well. The washing was performed three times in total. After washing, an IRDye 800CW Goat anti-Rabbit IgG (from LI-COR Biosciences) diluted 1,000-fold with the blocking solution was added at 10 μL per well as a secondary antibody, and the plate was allowed to stand for an hour at room temperature. The plate was centrifuged to remove the supernatant, and each well was washed three times with 0.05% Tween-20-containing PBS in the same manner as after the primary antibody reaction. Centrifugation after the third washing was performed at 171×g for 17 seconds. After removing the supernatant, the plate was dried as it was with air at room temperature for three hours or more, and the 800-nm fluorescent signals were measured with Aerius (from LI-COR Biosciences).
With the signaling value at the time of addition of DMSO taken as 0% inhibition and with the signaling value at the time of addition of […] trametinib taken as 100% inhibition, the 50% inhibition values (IC50) were calculated by Sigmoid-Emax model nonlinear regression analysis.

[4] = AsPC-1 spheroid 3D culture, six days, CellTiter Glo 2.0

SMILES | IC50 [1] | IC50 [2] | IC50 [3] | IC50 [2, 4]
Cc1c(F)cc2[nH]ncc2c1-c1c(C2CC2)cc2c(N3C[C@@H]4C[C@H]3CN4)nc(OC3CCOCC3)nc2c1OCc1ccc(Cc2ncn(C3CC3)n2)cc1 [Example 14, 6-cyclopropyl-8-({4-[(1-cyclopropyl-1H-1,2,4-triazol-3-yl)methyl]phenyl}methoxy)-4-[(1 S,4S)-2,5-diazabicyclo[2.2.1]heptan-2-yl]-7-(6-fluoro-5-methyl-1H-indazol-4-yl)-2-[(oxan-4-yl)oxy]quinazoline] | 143 nM | 154 nM | 42 nM | 
Cc1c(F)cc2[nH]ncc2c1-c1c(C2CC2)cc2c(N3C[C@@H]4C[C@H]3CN4)nc(OC3CCOCC3)nc2c1OCc1ccc(Cn2nc3n(c2=O)CCOC3)cc1 [Example 12, 2-({4-[({6-cyclopropyl-4-[(1S,4S)-2,5-diazabicyclo[2.2.1]heptan-2-yl]-7-(6-fluoro-5-methyl-1H-indazol-4-yl)-2-[(oxan-4-yl)oxy]quinazolin-8-yl}oxy)methyl]phenyl}methyl)-2,5,6,8-tetrahydro-3H-[1,2,4]triazolo[3,4-c][1,4]oxazin-3-one] | 74 nM | 153 nM | 72 nM | 
Cc1c(F)cc2[nH]ncc2c1-c1c(C2CC2)cc2c(N3C[C@@H]4C[C@H]3CN4)nc(OC3CCOCC3)nc2c1OCc1ccc(Cn2c(=O)n(C)c3nccnc32)cc1 (single isomer, unassigned) [Example 1] | 44 nM |  |  | 68 nM
Cc1c(F)cc2[nH]ncc2c1-c1c(C2CC2)cc2c(N3C[C@@H]4C[C@H]3CN4)nc(OC3CCOCC3)nc2c1OCc1ccc(Cc2cn3ccncc3n2)cc1 [Example 20, 6-cyclopropyl-4-[(1S,4S)-2,5-diazabicyclo[2.2.1]heptan-2-yl]-7-(6-fluoro-5-methyl-1H-indazol-4-yl)-8-({4-[(imidazo[1,2-a]pyrazin-2-yl)methyl]phenyl}methoxy)-2-[(oxan-4-yl)oxy]quinazoline] | 70 nM | 138 nM |  | 
CCc1nc(Cc2ccc(COc3c(-c4c(C)c(F)cc5[nH]ncc45)c(C4CC4)cc4c(N5C[C@@H]6C[C@H]5CN6)nc(OC5CCOCC5)nc34)cc2)nn1C [Example 15, 6-cyclopropyl-4-[(1S,4S)-2,5-diazabicyclo[2.2.1]heptan-2-yl]-8-({4-[(5-ethyl-1-methyl-1H-1,2,4-triazol-3-yl)methyl]phenyl}methoxy)-7-(6-fluoro-5-methyl-1H-indazol-4-yl)-2-[(oxan-4-yl)oxy]quinazoline] | 88 nM | 152 nM |  | 
Cc1c(F)cc2[nH]ncc2c1-c1c(C2CC2)cc2c(N3C[C@@H]4C[C@H]3CN4)nc(OC3CCOCC3)nc2c1OCc1ccc(Cc2nc3n(n2)CCC3)cc1 [Example 18, 6-cyclopropyl-4-[(1S,4S)-2,5-diazabicyclo[2.2.1]heptan-2-yl]-8-({4-[(6,7-dihydro-5H-pyrrolo[1,2-b][1,2,4]triazol-2-yl)methyl]phenyl}methoxy)-7-(6-fluoro-5-methyl-1H-indazol-4-yl)-2-[(oxan-4-yl)oxy]quinazoline] | 92 nM | 192 nM |  | 
Cc1c(F)cc2[nH]ncc2c1-c1c(C2CC2)cc2c(N3C[C@@H]4C[C@H]3CN4)nc(OC3CCOCC3)nc2c1OCc1ccc(CN2C(=O)CN(C)c3ncccc32)cc1 [Example 23, 1-({4-[({6-cyclopropyl-4-[(1S,4S)-2,5-diazabicyclo[2.2.1]heptan-2-yl]-7-(6-fluoro-5-methyl-1H-indazol-4-yl)-2-[(oxan-4-yl)oxy]quinazolin-8-yl}oxy)methyl]phenyl}methyl)-4-methyl-3,4-dihydropyrido[2,3-b]pyrazin-2(1H)-one] | 68 nM |  |  | 
Cc1c(F)cc2[nH]ncc2c1-c1c(C2CC2)cc2c(N3C[C@@H]4C[C@H]3CN4)nc(OC3CCOCC3)nc2c1OCc1ccc(Cc2ncn(C3CCOCC3)n2)cc1 [Example 19, 6-cyclopropyl-4-[(1S,4S)-2,5-diazabicyclo[2.2.1]heptan-2-yl]-7-(6-fluoro-5-methyl-1H-indazol-4-yl)-2-[(oxan-4-yl)oxy]-8-[(4-{[1-(oxan-4-yl)-1H-1,2,4-triazol-3-yl]methyl}phenyl)methoxy]quinazoline] | 65 nM | 189 nM |  | 
Cc1c(F)cc2[nH]ncc2c1-c1c(C2CC2)cc2c(N3C[C@@H]4C[C@H]3CN4)nc(OC3CCOCC3)nc2c1OCc1ccc(CN2CCN(CC3CC3)CC2=O)cc1 [Example 7, 1-({4-[({6-cyclopropyl-4-[(1S,4S)-2,5-diazabicyclo[2.2.1]heptan-2-yl]-7-(6-fluoro-5-methyl-1H-indazol-4-yl)-2-[(oxan-4-yl)oxy]quinazolin-8-yl}oxy)methyl]phenyl}methyl)-4-(cyclopropylmethyl)piperazin-2-one] | 105 nM | 80 nM |  | 
Cc1c(F)cc2[nH]ncc2c1-c1c(C2CC2)cc2c(N3C[C@@H]4C[C@H]3CN4)nc(OC3CCOCC3)nc2c1OCc1ccc(Cc2nc(C3CC3)n(C)n2)cc1 [Example 22, 6-cyclopropyl-8-({4-[(5-cyclopropyl-1-methyl-1H-1,2,4-triazol-3-yl)methyl]phenyl}methoxy)-4-[(1 S,4S)-2,5-diazabicyclo[2.2.1]heptan-2-yl]-7-(6-fluoro-5-methyl-1H-indazol-4-yl)-2-[(oxan-4-yl)oxy]quinazoline] | 161 nM |  |  | 209 nM
